In patent US20010012631A1, “Plant clonal lines and plants having elevated secondary metabolite levels” (University of Massachusetts Medical Center, a Massachusetts …, priority 1997, published 2001):
Several values for one entry are separate records, joined by “and”; a condition that tells them apart may be missing. Equal values may be shown once. Read-outs that look alike come from different tables or passages of the source.

Columns and labels:
Assay type in all cases: cell-based
oregano clonal line 0-4 = settings: ± SD; for RA Levels: 30 days (Example 3)
Procedure: (§1) A mucoid, non-pathogenic Pseudomonas sp. strain was isolated as a contaminant of an oregano shoot culture. This Pseudomonas sp. was termed strain F. This strain was used in selecting Pseudomonas tolerant clonal lines. Strain F was grown on yeast extract-mannitol medium (Difco, Inc., Detroit, Mich.) until the inoculum density was about 10^9 colony forming units/mL. The bacterial suspension was diluted 100-fold in sterile distilled water and about 2.5 ml was dispensed into petri plates. Individual shoots of each clonal line at about 30 days of subculture were removed by cutting at the basal end and then inoculated by dipping the cut end into the diluted bacterial suspension. Inoculated shoots were then transferred to half-strength hormone-free MS medium, which induces root formation, and incubated in a growth room at 23° C., on a 16/8 hours day/night schedule. About 40 shoots of each clone were inoculated. Control shoots of each clonal line were transferred to the same medium, but were not exposed to bacteria.
(§2) Samples of Pseudomonas-treated and untreated control shoots from each line were assayed for rosmarinic acid content and proline content. Rosmarinic acid was extracted from 50 mg of fresh shoot tissue using 2 ml of 50% (v/v) methanol and incubating for 1 hour at 55° C. One ml of the methanol extract was diluted 1:18 and the absorbance of the diluted extract was measured at 333 nm in a Genesys spectrophotometer (Spectronic Instruments, Rochester, N.Y.). The concentration of RA in the extract was calculated using an extinction coefficient of ε333=19,000 τmol^−1cm^−1. Values for the concentration of RA for each treatment/clonal line shown in the Tables and Figures of this application are the average of at least 5 separate extracts. Total rosmarinic acid content was expressed as % g/g fresh weight (FW) of tissue.
(§3) Individual shoot tissue propagules of each clonal line were transferred to half strength hormone-free MS medium supplemented with 100 μM A2C. RA content, proline content, and morphological abnormalities were determined as described in Example 1.
(§4) Shoot tissue from oregano lines 0-4 and 0-5 was also cultured in the presence of A2C for 30 days. Samples of treated and control shoots were then assayed for RA content on a fresh weight basis and for morphological abnormalities.
(§5) Individual shoot tissue propagules of each clonal line were transferred to half strength hormone-free MS medium supplement with A2C. RA content and morphological abnormalities were determined as described in Example 1.

oregano clonal line 0-5 = settings: for RA Levels: 30 days (Example 3)
Procedure: as §1, §2, §3, §4, §5

oregano clonal line OM-1 = settings: 30 days, ± SD
Procedure: as §2
(§6) Oregano lines 0-1, 0-4, and 0-5 of Examples 1 and 2 were tested again for cross-tolerance to A2C. Clonal lines OM-1, and OM-8 of Example 1 were also tested for cross-tolerance to A2C. Line OM-8 was previously shown to be sensitive to Pseudomonas strain F, whereas line OM-1 was tolerant of Pseudomonas strain F. Lines were maintained on MS medium containing BAP as described in Example 1.
as §5

oregano clonal line OM-8 = settings: 30 days
Procedure: as §2, §6, §5

thyme clonal line M-3 = test: RA content of shoot propagules, thyme clonal line M-3; settings: 30 to 45 days
Procedure: as §2
(§7) Three clonal thyme lines and five rosemary clonal lines were isolated and maintained in culture as described in U.S. application Ser. No. 08/771,241, filed Dec. 20, 1996 and incorporated herein by reference.
(§8) Individual shoot propagules of each clonal line were transferred to half-strength hormone-free MS media supplemented with A2C and cultured for 30 to 45 days. RA content and morphological abnormalities were determined at the end of the culture period as described in Example 1.

thyme clonal line T-16G = test: RA content of shoot propagules, thyme clonal line T-16G; settings: thyme T-16G, 30 to 45 days, ± SD
Procedure: as §2, §7, §8

thyme clonal line T-12 = test: RA content of shoot propagules, thyme clonal line T-12; settings: 30 to 45 days, ± SD
Procedure: as §2, §7, §8

rosemary clonal line R-1 = test: RA content of shoot propagules, rosemary clonal line R-1; settings: 30 to 45 days
Procedure: as §2, §7, §8

rosemary clonal line R-7 = test: RA content of shoot propagules, rosemary clonal line R-7; settings: rosemary R-7, A2C 100 μM, 30 to 45 days; ± SD
Procedure: as §2, §7, §8

O=C(O)C1CCN1 (stereo not shown) [A2C, azetidine-2-carboxylic acid]
RA (oregano clonal line 0-4; line 0-4, 100 μM A2C, day 30 (Example 2)): 4.3 mg/g FW and 4.3 ± 0.7 mg/g FW
RA Levels (oregano clonal line 0-4; line 0-4, A2C 100 μM): 6.4 ± 0.8 mg/g FW
RA Levels (oregano clonal line 0-4; line 0-4, A2C 200 μM): 6.8 ± 0.7 mg/g FW
RA (oregano clonal line 0-5; line 0-5, 100 μM A2C, 30 days, remaining tissue portions (primarily shoot tips) (Example 2), ± SD): 3.2 mg/g FW and 3.2 ± 0.4 mg/g FW
RA Levels (oregano clonal line 0-5; line 0-5, A2C 100 μM, ± SD): 3.1 ± 0.5 mg/g FW
RA Levels (oregano clonal line 0-5; line 0-5, A2C 200 μM): inhibited
RA Levels (oregano clonal line OM-1; line OM-1, A2C 100 μM): 7.1 ± 0.7 mg/g FW
RA Levels (oregano clonal line OM-1; line OM-1, A2C 200 μM): 6.4 ± 1.2 mg/g FW
RA Levels (oregano clonal line OM-8; line OM-8, A2C 100 μM, ± SD): 2.9 ± 0.3 mg/g FW
RA Levels (oregano clonal line OM-8; line OM-8, A2C 200 μM): inhibited
RA Levels (thyme clonal line M-3; thyme M-3, A2C 100 μM, ± SD): 2.4 ± 0.5 mg/g FW
RA Levels (thyme clonal line M-3; thyme M-3, A2C 200 μM): inhibited
RA Levels (thyme clonal line T-16G; A2C 100 μM): 3.1 ± 0.4 mg/g FW
RA Levels (thyme clonal line T-16G; A2C 200 μM): 3.7 ± 0.4 mg/g FW
RA Levels (thyme clonal line T-12; thyme T-12, A2C 100 μM): 4.1 ± 0.5 mg/g FW
RA Levels (thyme clonal line T-12; thyme T-12, A2C 200 μM): 5.1 ± 0.5 mg/g FW
RA Levels (rosemary clonal line R-1; rosemary R-1, A2C 100 μM, ± SD): 4.9 ± 0.5 mg/g FW
RA Levels (rosemary clonal line R-1; rosemary R-1, A2C 200 μM): inhibited
RA Levels (rosemary clonal line R-7): 6.8 ± 1.1 mg/g FW
